Assay results from patent US20080262009A1, “CRYSTALLINE POLYMORPHS OF N-(3-(DIMETHYLAMINO)PROPYL)-4-(4-(3-FLUORO-4-METHOXYPHENYL) PYRIMIDIN-2-YLAMINO) BENZENESULFONAMIDE AS ACETATE SALTS” (Wyeth, priority 2007, published 2008).

Experiments:
Water solubility = assay: Water solubility
Excerpt: HCl, phosphoric acid, tartaric acid, acetic acid, D-glucoronic acid and succinic acid were used to prepare pharmaceutically acceptable salts of compound 3.

[1] = Solubility in organic solvents / group 3 solvents; type: physicochemical

| Compound | solubility (Water solubility; water) [µg/mL] | Solubility in water (Water solubility; by a thermogravimeteric method) | water solubility (in words) (Water solubility; free base form, general statement) | solubility in THF, DMSO and DMF ([1]; THF, DMSO and DMF) | solubility in group 3 solvents, including water ([1]; group 3 solvents, including water) |
| --- | --- | --- | --- | --- | --- |
| CC(=O)O.COc1ccc(-c2ccnc(Nc3ccc(S(=O)(=O)NCCCN(C)C)cc3)n2)cc1F [acetate salt of compound 3] | 3500 | – | – | – | – |
| COc1ccc(-c2ccnc(Nc3ccc(S(=O)(=O)NCCCN(C)C)cc3)n2)cc1F [compound 3] | – | not detectable | little to no | high | low |
